{"source": "paper PMC5218480", "about": "(PLoS ONE, 2017)", "tested_on": "MV-4-11 cells", "assay": "Gene expression microarray analysis (Affymetrix PrimeView) and GSEA", "format": "cell-based, human", "parameters": "RFU PODN (11730768_x_at) / Fold change /veh PODN (11730768_x_at) / RFU LINC00158 (11744669_a_at) / Fold change /veh LINC00158 (11744669_a_at) / RFU DUSP10 (11751237_a_at) / Fold change /veh DUSP10 (11751237_a_at) / RFU ID3 (11757404_x_at) / Fold change /veh ID3 (11757404_x_at) / RFU PLEKHG5 (11737974_s_at) / Fold change /veh PLEKHG5 (11737974_s_at) / RFU LRRC4B (11730491_at) / Fold change /veh LRRC4B (11730491_at) / RFU GIMAP4 (11747438_a_at) / Fold change /veh GIMAP4 (11747438_a_at) / RFU KRT8 (11758183_x_at) / Fold change /veh KRT8 (11758183_x_at) / RFU CNN1 (11734310_a_at) / Fold change /veh CNN1 (11734310_a_at) / RFU VPS37D (11726825_at) / Fold change /veh VPS37D (11726825_at) / RFU C10orf10 (11716522_x_at) / Fold change /veh C10orf10 (11716522_x_at) / RFU KIR2DL2 /// KIR2DL4 /// KIR2DL5A /// KIR2DL5B /// KIR2DS1 /// KIR2DS2 /// KIR2DS3 /// KIR2DS4 /// KIR3DL3 /// KIR3DL3 /// KIR3DS1 (11738374_at) / Fold change /veh KIR2DL2 /// KIR2DL4 /// KIR2DL5A /// KIR2DL5B /// KIR2DS1 /// KIR2DS2 /// KIR2DS3 /// KIR2DS4 /// KIR3DL3 /// KIR3DL3 /// KIR3DS1 (11738374_at) / RFU C1QL1 (11718748_at) / Fold change /veh C1QL1 (11718748_at) / RFU TMPRSS4 (11747572_a_at) / Fold change /veh TMPRSS4 (11747572_a_at) / RFU HAMP (11756126_x_at) / Fold change /veh HAMP (11756126_x_at) / RFU RNFT2 (11725882_a_at) / Fold change /veh RNFT2 (11725882_a_at) / RFU NR4A2 (11747474_a_at) / Fold change /veh NR4A2 (11747474_a_at) / RFU ABCC12 (11746883_a_at) / Fold change /veh ABCC12 (11746883_a_at) / RFU TMEM136 (11760407_x_at) / Fold change /veh TMEM136 (11760407_x_at) / RFU CLDN22 /// WWC2 (11732394_at) / Fold change /veh CLDN22 /// WWC2 (11732394_at) / RFU HLA-DPB1 (11760878_x_at) / Fold change /veh HLA-DPB1 (11760878_x_at) / RFU SPINT1 (11716480_a_at) / Fold change /veh SPINT1 (11716480_a_at) / RFU GAP43 (11754022_s_at) / Fold change /veh GAP43 (11754022_s_at) / RFU A4GNT (11735810_at) / Fold change /veh A4GNT (11735810_at) / RFU PRB3 (11715151_x_at) / Fold change /veh PRB3 (11715151_x_at) / RFU TUBB4B (11761932_at) / Fold change /veh TUBB4B (11761932_at) / RFU CAPN14 (11732068_a_at) / Fold change /veh CAPN14 (11732068_a_at) / RFU TMCC2 (11721928_a_at) / Fold change /veh TMCC2 (11721928_a_at) / RFU IRGQ (11745062_a_at) / Fold change /veh IRGQ (11745062_a_at) / RFU FAM174B (11720279_a_at) / Fold change /veh FAM174B (11720279_a_at) / RFU TMPRSS4 (11748680_a_at) / Fold change /veh TMPRSS4 (11748680_a_at) / RFU FAM212B (11763350_a_at) / Fold change /veh FAM212B (11763350_a_at) / RFU PLEKHG5 (11743358_a_at) / Fold change /veh PLEKHG5 (11743358_a_at) / RFU ZSCAN30 (11745921_a_at) / Fold change /veh ZSCAN30 (11745921_a_at) / RFU CMKLR1 (11741424_a_at) / Fold change /veh CMKLR1 (11741424_a_at) / RFU LOC101060620 /// MAPK8IP1 (11723275_at) / Fold change /veh LOC101060620 /// MAPK8IP1 (11723275_at) / RFU SPTSSB (11747773_x_at) / Fold change /veh SPTSSB (11747773_x_at) / RFU PRSS12 (11739890_at) / Fold change /veh PRSS12 (11739890_at) / RFU BIN1 (11741810_x_at) / Fold change /veh BIN1 (11741810_x_at) / RFU WNT11 (11732464_a_at) / Fold change /veh WNT11 (11732464_a_at) / RFU C10orf10 (11716521_a_at) / Fold change /veh C10orf10 (11716521_a_at) / RFU C5orf56 (11738089_at) / Fold change /veh C5orf56 (11738089_at) / RFU CYB561 (11721691_x_at) / Fold change /veh CYB561 (11721691_x_at) / RFU ANKRD19P (11752326_a_at) / Fold change /veh ANKRD19P (11752326_a_at) / RFU OR2T12 /// OR2T33 /// OR2T8 (11738714_s_at) / Fold change /veh OR2T12 /// OR2T33 /// OR2T8 (11738714_s_at) / RFU VCAN (11748164_a_at) / Fold change /veh VCAN (11748164_a_at) / RFU JSRP1 (11732532_at) / Fold change /veh JSRP1 (11732532_at) / RFU KRTAP10-11 (11738290_x_at) / Fold change /veh KRTAP10-11 (11738290_x_at) / RFU MYO3A (11730013_a_at) / Fold change /veh MYO3A (11730013_a_at) / RFU EBF3 (11725865_a_at) / Fold change /veh EBF3 (11725865_a_at) / RFU CAMK2N1 (11719241_x_at) / Fold change /veh CAMK2N1 (11719241_x_at) / RFU C5orf56 (11738088_a_at) / Fold change /veh C5orf56 (11738088_a_at) / RFU OLFML3 (11715873_a_at) / Fold change /veh OLFML3 (11715873_a_at) / RFU LOC100653217 /// NTM (11731650_a_at) / Fold change /veh LOC100653217 /// NTM (11731650_a_at) / RFU MAPK11 (11762145_a_at) / Fold change /veh MAPK11 (11762145_a_at) / RFU FIZ1 (11724087_x_at) / Fold change /veh FIZ1 (11724087_x_at) / RFU OASL (11726364_x_at) / Fold change /veh OASL (11726364_x_at) / RFU SOX15 (11748057_x_at) / Fold change /veh SOX15 (11748057_x_at) / RFU CD79A (11719716_a_at) / Fold change /veh CD79A (11719716_a_at) / RFU HIST1H1D (11736915_at) / Fold change /veh HIST1H1D (11736915_at) / RFU CASKIN2 (11723855_a_at) / Fold change /veh CASKIN2 (11723855_a_at) / RFU LOC730098 (11760151_x_at) / Fold change /veh LOC730098 (11760151_x_at) / RFU OR4N2 (11742367_at) / Fold change /veh OR4N2 (11742367_at) / RFU PRRT2 (11749266_a_at) / Fold change /veh PRRT2 (11749266_a_at) / RFU SNX32 (11753110_a_at) / Fold change /veh SNX32 (11753110_a_at) / RFU CDHR5 (11726645_a_at) / Fold change /veh CDHR5 (11726645_a_at) / RFU RCAN1 (11760418_a_at) / Fold change /veh RCAN1 (11760418_a_at) / RFU FAM167A (11723789_a_at) / Fold change /veh FAM167A (11723789_a_at) / RFU FAM26E (11764081_at) / Fold change /veh FAM26E (11764081_at) / RFU ISYNA1 (11749810_s_at) / Fold change /veh ISYNA1 (11749810_s_at) / RFU ACY1 (11761880_at) / Fold change /veh ACY1 (11761880_at) / RFU 11764098_at / Fold change /veh 11764098_at / RFU SAMD14 (11745864_x_at) / Fold change /veh SAMD14 (11745864_x_at) / RFU NPB (11741838_a_at) / Fold change /veh NPB (11741838_a_at) / RFU TMPRSS6 (11731388_a_at) / Fold change /veh TMPRSS6 (11731388_a_at) / RFU KRTAP10-2 (11738614_at) / Fold change /veh KRTAP10-2 (11738614_at) / RFU ARHGAP8 /// PRR5-ARHGAP8 (11727945_x_at) / Fold change /veh ARHGAP8 /// PRR5-ARHGAP8 (11727945_x_at) / RFU KRTAP5-7 /// NADSYN1 (11734609_at) / Fold change /veh KRTAP5-7 /// NADSYN1 (11734609_at) / RFU RASL12 (11751679_a_at) / Fold change /veh RASL12 (11751679_a_at) / RFU CDKN2B (11736163_a_at) / Fold change /veh CDKN2B (11736163_a_at) / RFU PRF1 (11729649_at) / Fold change /veh PRF1 (11729649_at) / RFU, ZNF638 /// ZNF638-IT1 / Fold change vs veh, ZNF638 /// ZNF638-IT1 / RFU, PANK3 / Fold change vs veh, PANK3 / RFU, SH3YL1 / Fold change vs veh, SH3YL1 / RFU, ZEB2 / Fold change vs veh, ZEB2 / RFU, NRIP1 / Fold change vs veh, NRIP1 / RFU, PTTG1IP / Fold change vs veh, PTTG1IP / RFU, CAPN2 / Fold change vs veh, CAPN2 / RFU, MED14 / Fold change vs veh, MED14 / RFU, SNORA58 / Fold change vs veh, SNORA58 / RFU, C1orf63 / Fold change vs veh, C1orf63 / RFU, LRRFIP1 / Fold change vs veh, LRRFIP1 / RFU, NDUFAF7 / Fold change vs veh, NDUFAF7 / RFU, SLC12A2 / Fold change vs veh, SLC12A2 / RFU, IBTK / Fold change vs veh, IBTK / RFU, ESF1 / Fold change vs veh, ESF1 / Fold change vs veh, TMEM50B / RFU, TAOK1 / Fold change vs veh, TAOK1 / RFU, ACBD3 / Fold change vs veh, ACBD3 / RFU, TMA16 / Fold change vs veh, TMA16 / RFU, RWDD3 / Fold change vs veh, RWDD3 / RFU, BCAT1 / Fold change vs veh, BCAT1 / RFU, EDEM3 / Fold change vs veh, EDEM3 / RFU, TMEM33 / Fold change vs veh, TMEM33 / RFU, WDR75 / Fold change vs veh, WDR75 / RFU, AHCTF1 / Fold change vs veh, AHCTF1 / RFU, TFRC / Fold change vs veh, TFRC / RFU, ZDHHC17 / Fold change vs veh, ZDHHC17 / RFU, NOM1 / Fold change vs veh, NOM1 / RFU, ARL8B / Fold change vs veh, ARL8B / RFU, ZBTB11 / Fold change vs veh, ZBTB11 / RFU, TAMM41 / Fold change vs veh, TAMM41 / RFU, KIAA1704 /// LOC100996395 / Fold change vs veh, KIAA1704 /// LOC100996395 / RFU, ING1 / Fold change vs veh, ING1 / RFU, TRMT61B / Fold change vs veh, TRMT61B / RFU, FUBP3 / Fold change vs veh, FUBP3 / RFU, TP53 / Fold change vs veh, TP53 / RFU, TNKS2 / Fold change vs veh, TNKS2 / RFU, ZFP14 / Fold change vs veh, ZFP14 / RFU, ACTR2 / Fold change vs veh, ACTR2 / RFU, PPP3R1 / Fold change vs veh, PPP3R1 / RFU, PIK3R1 / Fold change vs veh, PIK3R1 / RFU, HNRNPA1 / Fold change vs veh, HNRNPA1 / RFU, RNF170 / Fold change vs veh, RNF170 / RFU, ZNF28 / Fold change vs veh, ZNF28 / RFU, RNGTT / Fold change vs veh, RNGTT / RFU, OGT / Fold change vs veh, OGT / RFU, BRD1 / Fold change vs veh, BRD1 / RFU, MARS / Fold change vs veh, MARS / RFU, ZNF655 / Fold change vs veh, ZNF655 / RFU, FAHD1 / Fold change vs veh, FAHD1 / RFU, BDP1 / Fold change vs veh, BDP1 / RFU, LRRCC1 / Fold change vs veh, LRRCC1 / RFU, ARID1A / Fold change vs veh, ARID1A / RFU, ZNF146 / Fold change vs veh, ZNF146 / RFU, ZNF330 / Fold change vs veh, ZNF330 / RFU, GPN3 / Fold change vs veh, GPN3 / RFU, C9orf123 / Fold change vs veh, C9orf123 / RFU, N4BP2L2 / Fold change vs veh, N4BP2L2 / RFU, ARFIP1 / Fold change vs veh, ARFIP1 / RFU, FAM179B / Fold change vs veh, FAM179B / RFU, BCL10 / Fold change vs veh, BCL10 / RFU, UHRF1BP1L / Fold change vs veh, UHRF1BP1L / RFU, BET1 / Fold change vs veh, BET1 / RFU, CNOT2 / Fold change vs veh, CNOT2 / RFU, ZNF268 / Fold change vs veh, ZNF268 / Fold change vs veh, ZNF507 / RFU, DGCR2 / Fold change vs veh, DGCR2 / RFU, WDSUB1 / Fold change vs veh, WDSUB1 / Fold change vs veh, HSP90B1 /// MIR3652 / RFU, ADSS / Fold change vs veh, ADSS / RFU, GK / Fold change vs veh, GK / RFU, ZNF148 / Fold change vs veh, ZNF148 / RFU, TAF9 / Fold change vs veh, TAF9 / RFU, SLC1A5 / Fold change vs veh, SLC1A5 / RFU, SLMO2 / Fold change vs veh, SLMO2 / RFU, ABCC4 / Fold change vs veh, ABCC4 / RFU, LOC101060439 /// RAP1B / Fold change vs veh, LOC101060439 /// RAP1B / RFU, RFX7 / Fold change vs veh, RFX7 / RFU, GTPBP10 / Fold change vs veh, GTPBP10 / RFU, CNEP1R1 / Fold change vs veh, CNEP1R1 / RFU, BIVM-ERCC5 /// ERCC5 / Fold change vs veh, BIVM-ERCC5 /// ERCC5 / RFU, ILF3 / Fold change vs veh, ILF3 / RFU 11762660_at / Fold change /veh 11762660_at / RFU VCAN (11757783_s_at) / Fold change /veh VCAN (11757783_s_at) / RFU DDX43 (11728927_at) / Fold change /veh DDX43 (11728927_at) / RFU KRT8 (11758188_x_at) / Fold change /veh KRT8 (11758188_x_at) / RFU NKD1 (11759106_at) / Fold change /veh NKD1 (11759106_at) / RFU SRD5A1 (11742802_a_at) / Fold change /veh SRD5A1 (11742802_a_at) / RFU TPSAB1 /// TPSB2 (11721975_s_at) / Fold change /veh TPSAB1 /// TPSB2 (11721975_s_at) / RFU GSTM3 (11746129_a_at) / Fold change /veh GSTM3 (11746129_a_at) / RFU IL23R (11737362_x_at) / Fold change /veh IL23R (11737362_x_at) / RFU TMEM51 (11727254_a_at) / Fold change /veh TMEM51 (11727254_a_at) / RFU PIWIL2 (11732686_x_at) / Fold change /veh PIWIL2 (11732686_x_at) / RFU ORM1 (11744905_x_at) / Fold change /veh ORM1 (11744905_x_at) / RFU CCDC152 (11743942_at) / Fold change /veh CCDC152 (11743942_at) / RFU ECM1 (11717891_a_at) / Fold change /veh ECM1 (11717891_a_at) / RFU IL23R (11748794_a_at) / Fold change /veh IL23R (11748794_a_at) / RFU TNFAIP8L3 (11732012_x_at) / Fold change /veh TNFAIP8L3 (11732012_x_at) / RFU MBOAT4 (11741988_at) / Fold change /veh MBOAT4 (11741988_at) / RFU 11764193_at / Fold change /veh 11764193_at / RFU TMEM53 (11763286_at) / Fold change /veh TMEM53 (11763286_at) / RFU MAGEB2 (11727129_at) / Fold change /veh MAGEB2 (11727129_at) / RFU TMEM200A (11744735_a_at) / Fold change /veh TMEM200A (11744735_a_at) / RFU CCDC152 (11751479_a_at) / Fold change /veh CCDC152 (11751479_a_at) / RFU FAM211A (11726209_a_at) / Fold change /veh FAM211A (11726209_a_at) / RFU RGS16 (11746705_a_at) / Fold change /veh RGS16 (11746705_a_at) / RFU VCAN (11755009_s_at) / Fold change /veh VCAN (11755009_s_at) / RFU RHOB (11743442_s_at) / Fold change /veh RHOB (11743442_s_at) / RFU RGS16 (11720943_a_at) / Fold change /veh RGS16 (11720943_a_at) / RFU RGS16 (11720944_at) / Fold change /veh RGS16 (11720944_at) / RFU, VPS4B / Fold change vs veh, VPS4B / RFU, CREB1 / Fold change vs veh, CREB1 / RFU, DNAJC13 / Fold change vs veh, DNAJC13 / RFU, GNAQ / Fold change vs veh, GNAQ / RFU, CDK5R1 / Fold change vs veh, CDK5R1 / RFU, ZRANB3 / Fold change vs veh, ZRANB3 / RFU, CUL4A / Fold change vs veh, CUL4A / RFU, CCNY / Fold change vs veh, CCNY / RFU, UFL1 / Fold change vs veh, UFL1 / RFU, COG3 / Fold change vs veh, COG3 / RFU, DIAPH2 / Fold change vs veh, DIAPH2 / RFU, SKA2 / Fold change vs veh, SKA2 / RFU, AFF3 / Fold change vs veh, AFF3 / RFU, LMF1 / Fold change vs veh, LMF1 / RFU, IPO11 / Fold change vs veh, IPO11 / RFU, DFFB / Fold change vs veh, DFFB / RFU, FOXP1 / Fold change vs veh, FOXP1 / RFU, CARD8 / Fold change vs veh, CARD8 / RFU, STRN3 / Fold change vs veh, STRN3 / RFU, ADK / Fold change vs veh, ADK / RFU, RASSF2 / Fold change vs veh, RASSF2 / RFU, WIPF1 / Fold change vs veh, WIPF1 / RFU, LARP1B / Fold change vs veh, LARP1B / RFU, RASA1 / Fold change vs veh, RASA1 / RFU, RB1 / Fold change vs veh, RB1 / RFU, PPFIA1 / Fold change vs veh, PPFIA1 / RFU, MAT2A / Fold change vs veh, MAT2A / RFU, CCT5 / Fold change vs veh, CCT5 / RFU, WDR92 / Fold change vs veh, WDR92 / RFU, CUX1 / Fold change vs veh, CUX1 / RFU, TTC7A / Fold change vs veh, TTC7A / RFU, TMEM135 / Fold change vs veh, TMEM135 / RFU, DEPTOR / Fold change vs veh, DEPTOR / RFU, CPM / Fold change vs veh, CPM / RFU, DNAJB6 / Fold change vs veh, DNAJB6 / RFU, CACNA2D3 / Fold change vs veh, CACNA2D3 / RFU, DTX4 / Fold change vs veh, DTX4 / RFU, TFCP2 / Fold change vs veh, TFCP2 / RFU, GMCL1 /// GMCL1P1 / Fold change vs veh, GMCL1 /// GMCL1P1 / RFU, AEBP2 / Fold change vs veh, AEBP2 / RFU, SNHG1 /// SNORD22 /// SNORD25 /// SNORD26 /// SNORD27 /// SNORD28 /// SNORD29 /// SNORD31 / Fold change vs veh, SNHG1 /// SNORD22 /// SNORD25 /// SNORD26 /// SNORD27 /// SNORD28 /// SNORD29 /// SNORD31 / Fold change (Aza/veh), C12orf56 (ProbeSet 11735607_a_at) / Fold change (ACY-1035/veh), C12orf56 (ProbeSet 11735607_a_at) / Fold change (Aza/veh), FGFR1OP (ProbeSet 11751329_s_at) / Fold change (ACY-1035/veh), FGFR1OP (ProbeSet 11751329_s_at) / Fold change (Aza/veh), VPS36 (ProbeSet 11739960_a_at) / Fold change (ACY-1035/veh), VPS36 (ProbeSet 11739960_a_at) / RFU SYPL1 (11715823_x_at) / Fold change /veh SYPL1 (11715823_x_at) / RFU IGFBP7 (11715501_s_at) / Fold change /veh IGFBP7 (11715501_s_at) / RFU REEP3 (11722064_at) / Fold change /veh REEP3 (11722064_at) / RFU IGLL1 (11728026_x_at) / Fold change /veh IGLL1 (11728026_x_at): dose or concentration left out as unconfirmed", "conditions": "ProbeSet 11725217_a_at; LIST B", "data": [{"compound": "Nc1ccc(-c2cccs2)cc1NC(=O)c1ccc2c(c1)cc(C1CC1)n2CCN1CCOCC1", "note": "[ACY-1035]", "values": [{"measurement": "RFU, WDSUB1", "result": 59.59, "unit": "RFU"}]}]}
